Laboratory results published in US20240295544A1 (priority 2020, published 2024).

System: CMs

With CC(C)C[C@H](NC(=O)[C@H](Cc1ccccc1)NC(=O)c1cnccn1)B(O)O [bortezomib] the “fragmentation frequency and severity compared with SARS-CoV-2” value (human) was “much more infrequently and less severely than SARS-CoV-2” and the “induction of myofibril fragmentations in CMs” value (no virus, bortezomib only at high doses (1 uM and 10 uM tested), doxorubicin 20 nM and 200 nM (Table 1A)) was “induced myofibril fragmentations”.
